From patent US20130344026A1, “Dimeric Smac Mimetics” (priority 2009, published 2013)
Read-outs that look alike come from different tables or passages of the source.

Tested on: PANC-1 cells
Assay: cell viability assay in PANC-1 cells (compound alone, + 100 ng/ml TNFa, + 300 ng/ml TRAIL)
Format: cell-based
[1] = Homo sapiens, PANC-1, compound alone, Tables 6-10, read-out: IC50 (μM) in cell viability assay in PANC-1 cells: Compound alone
[2] = with 100 ng/ml TNFa, Tables 6-10, read-out: IC50 (μM) in cell viability assay in PANC-1 cells: Compound + 100 ng/ml TNFa
[3] = with 300 ng/ml TRAIL, Tables 6-10, read-out: IC50 (μM) in cell viability assay in PANC-1 cells: Compound + 300 ng/ml TRAIL
[4] = Homo sapiens, PANC-1, compound alone, Tables 15-18, read-out: IC50 (uM) in cell viability assay in PANC-1 cells: Cmpnd alone
[5] = with 100 ng/ml TNFa, Tables 15-18, read-out: IC50 (uM) in cell viability assay in PANC-1 cells: Cmpnd + 100 ng/ml TNFa
[6] = with 300 ng/ml TRAIL, Tables 15-18, read-out: IC50 (uM) in cell viability assay in PANC-1 cells: Cmpnd + 300 ng/ml TRAIL

Row | IC50 [1] | IC50 [2] | IC50 [3] | SMILES | also measured
1 | > 1 µM | 0.015 µM | 0.015 µM | CN[C@@H](C)C(=O)N[C@H](C(=O)N[C@@H](CCNC(=O)c1cccc(C(=O)N[C@H]2C[C@@H](C(=O)N[C@@H]3CCCc4ccccc43)N(C(=O)[C@@H](NC(=O)[C@H](C)NC)C(C)(C)C)C2)c1)C(=O)N[C@@H]1CCCc2ccccc21)C(C)C [Compound 170] | 
2 | > 1 µM | 0.683 µM | 0.616 µM | CN[C@@H](C)C(=O)NC(C(=O)N[C@@H](CCC(=O)NCCc1cn([C@H]2C[C@@H](C(=O)N[C@@H]3CCCc4ccccc43)N(C(=O)[C@@H](NC(=O)[C@H](C)NC)C(C)(C)C)C2)nn1)C(=O)N[C@H](C)C(C)C)C(C)C (stereo partly drawn) [Compound 203] | 
3 | > 1 µM | > 1 µM | > 1 µM | CN[C@@H](C)C(=O)N[C@H](C(=O)N1CCC[C@H]1Cn1cnnc1CCc1ccccc1)[C@@H](C)OCC#CC#CCO[C@H](C)[C@H](NC(=O)[C@H](C)NC)C(=O)N1CCC[C@H]1Cn1cnnc1CCc1ccccc1 [Compound 85] | 
4 | > 1 µM | 0.0069 µM | 0.0107 µM | CN[C@@H](C)C(=O)N[C@H](C(=O)N[C@@H](CCNC(=O)c1cccc(C(=O)N[C@H]2C[C@@H](C(=O)N[C@@H]3CCCc4ccccc43)N(C(=O)[C@@H](NC(=O)[C@H](C)NC)C(C)(C)C)C2)c1)C(=O)N[C@H](C)c1ccccc1)C(C)(C)C [Compound 174] | 
5 | > 1 µM | 0.128 µM | 0.18 µM | CN[C@@H](C)C(=O)NC(C(=O)N[C@@H](CCNC(=O)CCc1cn([C@H]2C[C@@H](C(=O)N[C@@H]3CCCc4ccccc43)N(C(=O)[C@@H](NC(=O)[C@H](C)NC)C(C)(C)C)C2)nn1)C(=O)N[C@H](C)c1ccccc1)C(C)(C)C (stereo partly drawn) [Compound 197] | 
6 | > 1 µM | 0.004 µM | 0.003 µM | CN[C@@H](C)C(=O)N[C@@H](CCCCCC[C@H](NC(=O)[C@H](C)NC)C(=O)N1CC(F)(F)C[C@H]1C(=O)N[C@@H]1CCCc2ccccc21)C(=O)N1CC(F)(F)C[C@H]1C(=O)N[C@@H]1CCCc2ccccc21 [Compound 109] | 
7 | > 1 µM | 0.046 µM | 0.074 µM | CN[C@@H](C)C(=O)N[C@@H](CCCCNC(=O)C[C@H](NC(=O)[C@H](C)NC)C(=O)N1CCC[C@H]1C(=O)N[C@@H]1CCCc2ccccc21)C(=O)N1CCC[C@H]1C(=O)N[C@@H]1CCCc2ccccc21 [Compound 199] | 

The next lines start with the molecule.

Row | SMILES | IC50 [1] | IC50 [2] | IC50 [3] | also measured
8 | CN[C@@H](C)C(=O)N[C@H](C(=O)N[C@@H](CCNC(=O)c1cc(C(=O)N[C@H]2C[C@@H](C(=O)N[C@@H]3CCCc4ccccc43)N(C(=O)[C@@H](NC(=O)[C@H](C)NC)C(C)(C)C)C2)cc([N+](=O)[O-])c1)C(=O)N[C@H](C)C(C)C)C(C)C [Compound 179] | > 1 µM | 0.056 µM | 0.048 µM | 
9 | CN[C@@H](C)C(=O)N[C@H](C(=O)N[C@@H](CCNC(=O)c1ccc(C#Cc2ccc(C(=O)N[C@H]3C[C@@H](C(=O)N[C@@H]4CCCc5ccccc54)N(C(=O)[C@@H](NC(=O)[C@H](C)NC)C(C)(C)C)C3)cc2)cc1)C(=O)NC(C)C(C)C)C(C)C (stereo partly drawn) [Compound 194] | > 1 µM | 0.057 µM | 0.06 µM | 
10 | CN[C@@H](C)C(=O)N[C@@H](CC(=O)NCCNC(=O)C[C@H](NC(=O)[C@H](C)NC)C(=O)N1CCC[C@H]1C(=O)N[C@@H]1CCCc2ccccc21)C(=O)N1CCC[C@H]1C(=O)N[C@@H]1CCCc2ccccc21 [Compound P2-40] |  |  |  | IC50 [4]: > 1 µM; IC50 [5]: 0.19 µM; IC50 [6]: 0.25 µM
11 | CN[C@@H](C)C(=O)N[C@H](C(=O)N1C[C@@H](NC(=O)c2cccc(C(=O)N[C@H]3C[C@@H](C(=O)N[C@H](C)C4OCCCO4)N(C(=O)[C@@H](NC(=O)[C@H](C)NC)C(C)(C)C)C3)c2)C[C@H]1C(=O)N[C@H](C)C1OCCCO1)C(C)(C)C [Compound 53] | > 1 µM | 0.466 µM | 0.227 µM | 
12 | CN[C@@H](C)C(=O)N[C@H](C(=O)N1C[C@@H](NC(=O)c2cccc(C(=O)N[C@H]3C[C@@H](C(=O)NCc4ccc(O)c(OC)c4)N(C(=O)[C@@H](NC(=O)[C@H](C)NC)C(C)(C)C)C3)c2)C[C@H]1C(=O)NCc1ccc(O)c(OC)c1)C(C)(C)C [Compound 6] | > 1 µM | 0.471 µM | 0.31 µM | 
13 | CN[C@@H](C)C(=O)NC(C(=O)N1C[C@@H](NC(=O)c2cccc(C(=O)N[C@H]3CC(C(=O)N[C@@H]4CC5CCC4(C)C5(C)C)N(C(=O)[C@@H](NC(=O)[C@H](C)NC)C(C)(C)C)C3)c2)CC1C(=O)N[C@@H]1CC2CCC1(C)C2(C)C)C(C)(C)C (stereo partly drawn) [Compound 40] | > 1 µM | 0.555 µM | 0.517 µM | 
14 | CN[C@@H](C)C(=O)N[C@@H](CCNCc1ccc(CNCC[C@H](NC(=O)[C@H](C)NC)C(=O)N2CCC[C@H]2C(=O)N[C@@H]2CCCc3ccccc32)cc1)C(=O)N1CCC[C@H]1C(=O)N[C@@H]1CCCc2ccccc21 [Compound P2-43] |  |  |  | IC50 [4]: > 1 µM; IC50 [5]: 0.012 µM; IC50 [6]: 0.016 µM
15 | CN[C@@H](C)C(=O)NC(C(=O)N1C[C@@H](NC(=O)c2cccc(C(=O)N[C@H]3CC(C(=O)N[C@H](CO)[C@H](O)c4ccccc4)N(C(=O)[C@@H](NC(=O)[C@H](C)NC)C(C)(C)C)C3)c2)CC1C(=O)N[C@H](CO)[C@@H](O)c1ccccc1)C(C)(C)C (stereo partly drawn) [Compound 42] | > 1 µM | 0.753 µM | 0.645 µM | 
16 | CN[C@@H](C)C(=O)N[C@H](C(=O)N1C[C@@H](NC(=O)c2ccc3cc(C(=O)NCC[C@H](NC(=O)[C@@H](NC(=O)[C@H](CO)NC)C4CCCCC4)C(=O)N[C@H](C)C(C)C)ccc3c2)C[C@H]1C(=O)N[C@@H]1CCCc2ccccc21)C(C)(C)C [Compound H-10] |  |  |  | IC50 [4]: > 1 µM; IC50 [5]: 0.001 µM; IC50 [6]: 0.0009 µM
17 | CN[C@@H](C)C(=O)N[C@H](C(=O)N1CCCC1C(=O)N[C@H](COCC#CC#CCOC[C@@H](NC(=O)[C@H](C)NC(=O)[C@H](NC(=O)[C@@H](CO)NC)C1CCCCC1)C(C)C)C1CCCCC1)C(C)(C)C (stereo partly drawn) [Compound H-8] |  |  |  | IC50 [4]: > 1 µM; IC50 [5]: 0.017 µM; IC50 [6]: 0.033 µM
18 | CN[C@@H](C)C(=O)N[C@H](C(=O)N1CCC[C@H]1CN(CC#CC#CCN(CCc1ccccc1)C[C@@H]1CCCN1C(=O)[C@@H](NC(=O)[C@H](C)NC)C(C)(C)C)CCc1ccccc1)C(C)(C)C [Compound P4-20] |  |  |  | IC50 [4]: > 1 µM; IC50 [5]: 0.061 µM; IC50 [6]: 0.041 µM
19 | CN[C@@H](C)C(=O)N[C@@H](CCCCCC[C@H](NC(=O)[C@H](C)NC)C(=O)N1CCC[C@H]1CNC(=O)c1cnccn1)C(=O)N1CCC[C@H]1CNC(=O)c1cnccn1 [Compound 30] | > 1 µM | > 1 µM | > 1 µM | 
20 | CN[C@@H](CO)C(=O)N[C@H](C(=O)N1C[C@@H](NC(=O)c2cc(C(=O)N[C@H]3C[C@@H](C(=O)N[C@H](C)c4ccccc4)N(C(=O)[C@@H](NC(=O)[C@H](CO)NC)C(C)(C)C)C3)[nH]n2)C[C@H]1C(=O)N[C@H](C)c1ccccc1)C(C)(C)C [Compound P3-91] |  |  |  | IC50 (Homo sapiens, PANC-1 cells, compound alone, read-out: IC50 (uM) in cell viability assay in PANC-1 cells, Cmpnd alone): > 1 µM; IC50 (PANC-1 cells, + 100 ng/ml TNFa, read-out: IC50 (uM) in cell viability assay in PANC-1 cells, Cmpnd + 100 ng/ml TNFa): 0.152 µM; IC50 (PANC-1 cells, + 300 ng/ml TRAIL, read-out: IC50 (uM) in cell viability assay in PANC-1 cells, Cmpnd + 300 ng/ml TRAIL): 0.225 µM
21 | CN[C@@H](C)C(=O)NC(C(=O)N1C[C@@H](NC(=O)c2cccc(C(=O)N[C@H]3CC(C(=O)N[C@H](C)c4cccc5ccccc45)N(C(=O)[C@@H](NC(=O)[C@H](C)NC)C(C)(C)C)C3)c2)CC1C(=O)NC(C)c1cccc2ccccc12)C(C)(C)C (stereo partly drawn) [Compound 41] | > 1 µM | 0.452 µM | 0.434 µM | 
